Data taken from patent publication US20190194279A1, “Wound Healing Peptide” (James Cook University, priority 2016, published 2019).
“Also recorded” adds a separate entry of the source. Where no end group is shown, it is not given here.

Key:
[1] = tested on: H69 cells; assay: Cell proliferation monitoring in real time using xCELLigence (Example 2, 200 nM, 48 h); assay type: cell-based, human; settings: 200 nM peptide
Procedure: H69 cell line, non-malignant cholangiocyte cell line was obtained from Dr. Gregory J. Gores, Mayo Clinic, Rochester, Minn.^34. H69 cells were grown and maintained as previously described^34 in DMEM/F12 (Life Technologies) containing 1× antibiotic/antimycotic and 15 mM HEPES, supplemented with 10% fetal bovine serum (FBS) (Gibco, Scotland) at 37 C and 5% incubator. Cell proliferation assays were performed with modified DMEM/F12 media supplemented with 0.5% FBS and particular hormone and growth factors in a certain concentration range as listed in the previous study^34.
Proliferation study in real time was performed using xCELLigence SP system (ACEA Biosciences) as described previously^34. H69 cells were plated into a 96-well xCELLigence E-plate (ACEA Biosciences) at a density of 2000 cells/well; then placed in the xCELLigence system positioned in a 5% CO2 incubator at 37° C. and monitored overnight^47. Then, the complete media was replaced with 180 μl of starvation media (modified DMEM/F12 media supplemented with […] as described previously^34) and incubated for at least 6 hour. Treatments were added to each well in a total volume of 20 μl to provide 200 nM final concentrations. […] Cell proliferation rate was calculated as the relative numbers of treated cells compared to control cells over time (48 hours in culture). […] Each treatment was measured in quadruplicate.

[2] = tested on: H69 human cholangiocytes; assay: Cell proliferation monitoring in real time using xCELLigence (Example 1, day 4); assay type: cell-based; settings: for increase in cell proliferation over peptide controls: at 400 nM; for cell proliferation, result in words: concentrations tested 10 nM-2 μM
Excerpt: Mammalian Cell Culture The non-malignant cholangiocyte cell line H69 is a SV40-transformed human bile duct epithelial cell line derived from human liver, kindly provided by Dr. Gregory J. Gores, Mayo Clinic, Rochester, Minn. H69 cells^23, 29, 30 were maintained in T75 cm^2 vented flasks (Corning) as monolayers as described^31 with minor modifications. Cells were maintained with regular splitting using 0.25% trypsin (Life Technologies) every 2-5 days in complete media [RPMI (Sigma) with growth factor-supplemented specialist complete media^30 [DMEM/F12 with high glucose, 10% FCS, 1×antibiotic/antimycotic, 25 μg/ml adenine, 5 μg/ml insulin, 1 μg/ml epinephrine, 8.3 μg/ml holo-transferrin, 0.62 μg/ml, hydrocortisone, 13.6 ng/ml T3 and 10 ng/ml EGF—Life Technologies]. Low nutrient media for cell proliferation assays was 5% complete media, i.e. 0.5% FCS and 1/20th of the growth factor concentrations listed above for complete media. The identities (human-derived) of the cell line were confirmed with […] (STR) analysis in January 2015 (15/15 positive loci across 2 alleles) and mycoplasma free at the DNA Diagnostics Centre (DDC)-medical (U.S.A.), accredited/certified by CAP, ISO/IEC 17025:2005 through ACLASS.
Cell proliferation monitoring in real time using xCELLigence Cells were seeded at 1,500 cells/well in 180 μl complete media (above) in E-plates (ACEA Biosciences) and grown overnight while monitored with an xCELLigence SP system (ACEA Biosciences) which monitors cellular events in real time by measuring electrical impedance across interdigitated gold micro-electrodes integrated into the base of tissue culture plates^32. Cells were washed three times with PBS prior to addition of 180 μl of low nutrient media (above) and incubated for a minimum of 6 h before further treatment. Treatments were prepared at 10× concentration and added to each well in a total volume of 20 μl. The xCELLigence system recorded cell indexes at intervals of one hour for 5-6 days following treatment. Readings for the cell index were normalized prior to treatment and cell proliferation ratios were determined from biological quadruplicates and represent the relative numbers of cells compared to control cells at day 4. Comparisons of induction of cell proliferation in response to treatments were accomplished using two-way ANOVA test with Dunnett's multiple comparison correction, using GraphPad Prism 6.02.

[3] = tested on: skin-deep wound on the crown of the head; assay type: in vivo, BALB/c mice; settings: mouse; for day 4 wound healing relative to controls, result in words (Example 3): 56 pmoles topical daily days 0-4, relative to peptide control
Procedure: These studies were conducted with the approval of the James Cook University Small Animal Ethics Committee, applications A1806 and A2204, as described^6. Briefly, 4-5 female BALB/c mice per group were anesthetized (intraperitoneal xylazine 16 mg/kg; ketamine 80 mg/kg), after which a skin-deep wound on the crown of the head was inflicted using a 5 mm biopsy punch (Zivic instruments). […] Wounds were photographed daily and after blinding treatment groups the area of the lesion was measured with ImageJ software and plotted as percent of wound closure from original wound images. […] Each mouse wounding study was conducted at least twice to provide reproducibility.
Day 4 wound healing were assessed using peptides as described herein (Ov-GRN-1, Ov-GRN1-35, Ov-GRN8-38, Ov-GRN12-34, Ov-GRN12-35_3s, GRN24-3ala, GRN24-P2A, GRN24-P4A, and GRN27sps).

CADAVYTCRAGQTCCRGLHGYGCC [GRN3Ala]
effect on cell proliferation compared to the control peptide, result in words [1]: did not have statistically significant effect | effect on cell proliferation compared to the control peptide, result in words ([1]; listed as SEQ ID NO:9): did not enhance cell proliferation

CADPVYTCRPGQTCCRGLHGYGCC [GRN24P2A]
proliferation rate relative to the control peptide [1]: 131.7%

CPDAVYTCRPGQTCCRGLHGYGCC [P4A]
proliferation rate relative to the control peptide [1]: 141.6%

CPDPVYTCRAGQTCCRGLHGYGCC [P10A]
proliferation rate relative to the control peptide [1]: 131.4%

CPDPVYTCRPGQTCCRGLHGYGCC [Ov-GRN12-35_3s]
increase in cell proliferation over peptide controls [2]: 26% | cell proliferation, result in words [2]: most potent peptide in the cell proliferation assay | increase in cell growth compared to control peptide ([2]; final concentration of 2 (unit not given), day 4): 41% | final concentrations with significantly increased cell proliferation (p<0.05) ([2]; four days after single application): > 15 nM | wound healing activity in vivo compared with the other Ov-GRN-1 peptides, in words [3]: no more active in vivo than the other Ov-GRN-1 peptides | day 4 wound healing relative to controls, result in words (Example 3) [3]: significant increases in wound healing

Ov-GRN1-35: truncated Ov-GRN-1 peptide, residues 1-35, four cysteines, two disulfide bonds, Cys IV and Cys VI replaced with alanine (MDTLQPIRSPSCPDPVYTCRPGQTCARGLHGYGCA; disulfide (positions not given here))
increase in cell proliferation over peptide controls [2]: 9% | day 4 wound healing relative to controls, result in words (Example 3) [3]: significant increases in wound healing

Ov-GRN8-38: truncated Ov-GRN-1 peptide, residues 8-38, two disulfide bonds (RSPSCPDPVYTCRPGQTCARGLHGYGCAPMD; disulfide (positions not given here))
day 4 wound healing relative to controls, result in words (Example 3) [3]: significant increases in wound healing

Ov-GRN12-34: minimal Ov-GRN-1 sequence that contains the four cysteine residues, two disulfide bonds (CPDPVYTCRPGQTCARGLHGYGC; disulfide (positions not given here))
day 4 wound healing relative to controls, result in words (Example 3) [3]: significant increases in wound healing

carp granulin1-30: N-terminal 30 residues of carp granulin-1 with Cys IV and Cys VI replaced with alanine residues (VIHCDAATICPDGTTCALSPYGVWYCAPFS) [reference compound]
maximum proliferation over peptide controls ([2]; at 32 nM): 9% | cell proliferation, result in words [2]: minimal cell proliferation (non-significant); also recorded: no substantial proliferation
